Reference: patent US5091539A, “Azolyl cycloalkanol derivatives and agricultural fungicides” (Shionogi & Co., Ltd., priority 1984, dated 1992)

What was measured:
Type in all cases: in vivo
Fusarium oxysporum = test: Control test to damping-off of cucumber (Fusarium oxysporum); settings: soil drench, 14 days
Procedure: (§1) (1) The fungus causing damping-off of cucumber seedlings, Rhizoctonia solani or Fusarium oxysporum was cultured on a wheat bran medium at 28° C. for 5 days, which was mixed with sterilized soil and cultured for 2 days to prepare the inoculum. Sterilized soil (150 g) was put into a pot of 9 cm in diameter. The surface of the spot was covered with the above inoculum. […] Twenty cucumber seeds (Cultivar: Matsukaze) were sown 2 days after. The pots were kept at 30°±2° C. for 14 days. The infection was observed 14 days after and disease degree and percent disease degree were obtained by setting an evaluation index for each disease sympton.
(§2) (2) Evaluation [formula] wherein a: number of seeds without germination b: number of seedlings showing damping-off c: number of wilted seedlings d: number of seedlings being a little brownish in cotyledons or at the bottom of the stem e: number of uninfected seedlings [formula] wherein a: number of seeds without germination or seedlings with damping-off b: number of wilted seedlings c: number of seedlings being a little brownish in cotyledons or at the bottom of the stem d: number of uninfected seedlings [formula]

Puccinia coronata = test: Control test of crown rust of oat; settings: 125 ppm
Procedure: (1) Young oats (Cultivar: Pc38) grown in pots in a greenhouse were (i) sprayed with 10 ml each of solution of the test compounds at a prescribed concentration and after air-drying, they were inoculated with 15 mg of uredospores of Puccinia coronata per 20 pots (protective spraying) or (ii) sprayed with the test solution 3 days after inoculation of uredospores. After each plant was kept at 20°-25° C. in a greenhouse for 2 weeks, number of uredia was counted on the first leaf.

Sphaerotheca fuliginea [1] = test: Control test to powdery mildew of cucumber by vapor (filter paper disks)
Procedure: (1) The first leaves of young cucumber (Cultivar: Matsukaze) planted in pot of 9 cm in diameter were inoculated with spore suspension of Sphaerotheca fuliginea. After the plants were kept in a greenhouse for 2 days, thin cover plates, 15 mm in diameter, were put on the first leaves. Filter paper disks soaked with 80 μl of test solution at a concentration of 31.3, 7.8, 2.0 or 0.5 ppm were put on the plates for 3 days. Disease degrees were observed 14 days after the inoculation.
It is evaluated as + when an inhibition zone was observed around the plate, as ± when the inhibition zone has nearly the same diameter (8 mm) as that of plate or as - when there is no inhibition zone.
(§3) (1) Test methods and evaluation are the same as those in Tests 2, 4 and 6.

Sphaerotheca fuliginea [2] = test: Control test to powdery mildew of cucumber (foliar and soil treatment); settings: for Foliar Treatment, Curative Effect / Foliar Treatment, Protective Effect / Soil Treatment, Protective Effect / Powdery mildew, Foliar Treatment, Curative Effect / Powdery mildew, Foliar Treatment, Protective Effect / Powdery mildew, Soil Treatment, Protective Effect: index 0-10; for Protective Index, Foliar Treatment / Protective Index, Soil Treatment: first Table 4, 125 ppm, 14 days
Procedure: (1) Seeds of cucumber (Cultivar: Matsukaze) were sown in a pot of 9 cm in diameter and the pots were kept in a green house until the plant was grown for 2-3 leaf stage. The first leaf was sprayed with, (i) 3 ml each of solutions containing the test compound at the prescribed concetrations and dried by the air (foliar treatment). Inoculation of spore suspension of Sphaerotheca fuliginea by spraying was practised 2 days before the treatment (curative effect) or 1 day after the treatment (protective effect). Alternatively, (ii) 5 ml of the solution was applied at the root of the seedlings (soil treatment). The pots were kept in a greenhouse for 2 days and inoculation was practised in the same manner noted above. (iii) After sprayed with 3 ml of a solution of the test compound at a concentration of 125 ppm and dried by the air, the treated pots were set in a greenhouse. Untreated pots were placed next to the treated pots. Those treated and untreated plants were inoculated with spore suspension. Protective effect of the test compounds by vapor was thus checked. The effect was examined 14 days after the inoculation of the spores.
0: Disease sign is observed on the whole leaf.
3: Disease sign is observed on the leaf in about 50%.
5: Disease sign is observed on the leaf in about 30%.
7: Disease sign is observed on the leaf in about 20%.
9: a little disease sign is observed.
as §3

Botrytis cinerea = test: Control test of Botrytis rot (gray mold) of cucumber
Procedure: (1) Seedlings of cucumber (Cultivar: Matsukaze) were planted in a pot of 9 cm in diameter. The first leaf was sprayed with 3 ml each of solutions containing the test compound at the concentration of 125 or 31.3 ppm and the plant was dried by the air. After inoculation of the spores of Botrytis cinerea, the plants were kept at 20°±2° C. and 90-100% humidity ((i) protective spraying). Alternatively, the spores were inoculated at first and when the leaves suffered a little (about 2 days after), the solutions of the test compounds were sprayed ((ii) curative spraying). Evaluation was practised 3 days after the inoculation. Percent disease control was calculated by the ratio of diameter of diseased area in treated and untreated plants.
as §3

Rhizoctonia solani = test: Control test to damping-off of cucumber (Rhizoctonia solani); settings: soil drench, 14 days
Procedure: as §1, §2

Sclerotinia sclerotiorum = test: Control test to Sclerotinia rot of cucumber
Source text: (1) This test was practised in the same manner as in the above test, control test of Botrytis rot (gray mold) of cucumber, except for using the mycelium of Sclerotinia sclerotiorum as inoculm. The same as in test 2.

Compound: O=C1C2CC=CCC2C(=O)N1SC(Cl)(Cl)Cl (stereo not shown) [Captan, reference compound]
- Disease Degree (Fusarium oxysporum; 800 ppm): 0
- Percent Disease Control (Fusarium oxysporum; 800 ppm): 100%

Compound: CC(C)(C)C(=O)C(Oc1ccc(Cl)cc1)n1cncn1 (stereo not shown) [Triadimefon, reference compound]
- Percent Disease Control, Curative Spraying (Puccinia coronata): 100%
- Percent Disease Control, Protective Spraying (Puccinia coronata): 100%
- Protective Effect by Vapor (Sphaerotheca fuliginea [1]; Table 6, 0.5 ppm): -
- Protective Effect by Vapor (Sphaerotheca fuliginea [1]; Table 6, 2.0 ppm): -
- Protective Effect by Vapor (Sphaerotheca fuliginea [1]; Table 6, 7.8 ppm): -
- Protective Effect by Vapor (Sphaerotheca fuliginea [1]; Table 6, 31.3 ppm): -
- Foliar Treatment, Curative Effect (Sphaerotheca fuliginea [2]; second Table 4, 0.5 ppm): 0
- Foliar Treatment, Protective Effect (Sphaerotheca fuliginea [2]; second Table 4, 0.5 ppm): 0
- Soil Treatment, Protective Effect (Sphaerotheca fuliginea [2]; second Table 4, 0.5 ppm): 0
- Foliar Treatment, Curative Effect (Sphaerotheca fuliginea [2]; second Table 4, 2.0 ppm): 9
- Foliar Treatment, Protective Effect (Sphaerotheca fuliginea [2]; second Table 4, 2.0 ppm): 7 (Disease sign is observed on the leaf in about 20%.)
- Soil Treatment, Protective Effect (Sphaerotheca fuliginea [2]; second Table 4, 2.0 ppm): 0
- Foliar Treatment, Curative Effect (Sphaerotheca fuliginea [2]; second Table 4, 7.8 ppm): 10
- Foliar Treatment, Protective Effect (Sphaerotheca fuliginea [2]; second Table 4, 7.8 ppm): 9
- Soil Treatment, Protective Effect (Sphaerotheca fuliginea [2]; second Table 4, 7.8 ppm): 3 (Disease sign is observed on the leaf in about 50%.)
- Foliar Treatment, Curative Effect (Sphaerotheca fuliginea [2]; second Table 4, 31.3 ppm): 10
- Foliar Treatment, Protective Effect (Sphaerotheca fuliginea [2]; second Table 4, 31.3 ppm): 10
- Soil Treatment, Protective Effect (Sphaerotheca fuliginea [2]; second Table 4, 31.3 ppm): 10

Compound: O[C@]1(c2ccc(Cl)cc2)CCCC[C@H]1n1cncn1 (relative stereo) [Trans-isomer of Compound 22, 1-(4-chlorophenyl)-2-(1,2,4-triazol-1-yl)cyclohexanol, reference compound]
- Powdery mildew, Vapor Effect (Sphaerotheca fuliginea [1]; Table 9, 2.0 ppm): -
- Powdery mildew, Vapor Effect (Sphaerotheca fuliginea [1]; Table 9, 7.8 ppm): -
- Powdery mildew, Vapor Effect (Sphaerotheca fuliginea [1]; Table 9, 31.3 ppm): -
- Powdery mildew, Foliar Treatment, Curative Effect (Sphaerotheca fuliginea [2]; Table 9, 0.03 ppm): 0
- Powdery mildew, Foliar Treatment, Protective Effect (Sphaerotheca fuliginea [2]; Table 9, 0.03 ppm): 0
- Powdery mildew, Foliar Treatment, Curative Effect (Sphaerotheca fuliginea [2]; Table 9, 0.12 ppm): 0
- Powdery mildew, Foliar Treatment, Protective Effect (Sphaerotheca fuliginea [2]; Table 9, 0.12 ppm): 0
- Powdery mildew, Foliar Treatment, Curative Effect (Sphaerotheca fuliginea [2]; Table 9, 0.5 ppm): 5 (Disease sign is observed on the leaf in about 30%.)
- Powdery mildew, Foliar Treatment, Protective Effect (Sphaerotheca fuliginea [2]; Table 9, 0.5 ppm): 3 (Disease sign is observed on the leaf in about 50%.)
- Powdery mildew, Soil Treatment, Protective Effect (Sphaerotheca fuliginea [2]; Table 9, 0.5 ppm): 0
- Powdery mildew, Foliar Treatment, Curative Effect (Sphaerotheca fuliginea [2]; Table 9, 2.0 ppm): 9
- Powdery mildew, Foliar Treatment, Protective Effect (Sphaerotheca fuliginea [2]; Table 9, 2.0 ppm): 10
- Powdery mildew, Soil Treatment, Protective Effect (Sphaerotheca fuliginea [2]; Table 9, 2.0 ppm): 0
- Powdery mildew, Soil Treatment, Protective Effect (Sphaerotheca fuliginea [2]; Table 9, 7.8 ppm): 0
- Powdery mildew, Soil Treatment, Protective Effect (Sphaerotheca fuliginea [2]; Table 9, 31.3 ppm): 5 (Disease sign is observed on the leaf in about 30%.)
- Gray Mold, Percent Disease Control, Curative Spraying (Botrytis cinerea; Table 9, 7.8 ppm): 0%
- Gray Mold, Percent Disease Control, Protective Spraying (Botrytis cinerea; Table 9, 7.8 ppm): 0%
- Gray Mold, Percent Disease Control, Curative Spraying (Botrytis cinerea; Table 9, 31.3 ppm): 0%
- Gray Mold, Percent Disease Control, Protective Spraying (Botrytis cinerea; Table 9, 31.3 ppm): 3%
- Gray Mold, Percent Disease Control, Curative Spraying (Botrytis cinerea; Table 9, 125 ppm): 2%
- Gray Mold, Percent Disease Control, Protective Spraying (Botrytis cinerea; Table 9, 125 ppm): 3%

Compound: Cc1ccccc1C(=O)Nc1cccc(OC(C)C)c1 [Mepronil, reference compound]
- Disease Degree (Rhizoctonia solani; 47 ppm): 77
- Percent Disease Control (Rhizoctonia solani; 47 ppm): 23%
- Disease Degree (Rhizoctonia solani; 750 ppm): 5
- Percent Disease Control (Rhizoctonia solani; 750 ppm): 95%

Compound: O[C@@]1(c2ccc(Cl)s2)CCCCC[C@H]1n1cncn1 (relative stereo) [Compound 13, cis-1-(5-chloro-2-thienyl)-2-(1,2,4-triazol-1-yl)cycloheptanol]
- Percent Disease Control, Curative Spraying (Sclerotinia sclerotiorum; 125 ppm): 95%
- Percent Disease Control, Protective Spraying (Sclerotinia sclerotiorum; 125 ppm): 100%
- Protective Index, Foliar Treatment (Sphaerotheca fuliginea [2]): 10
- Protective Index, Soil Treatment (Sphaerotheca fuliginea [2]): 10
- Disease Degree (Fusarium oxysporum; 500 ppm): 100
- Percent Disease Control (Fusarium oxysporum; 500 ppm): 0%
- Percent Disease Control, Curative Spraying (Botrytis cinerea; Table 2, 125 ppm): 94%
- Percent Disease Control, Protective Spraying (Botrytis cinerea; Table 2, 125 ppm): 100%
- Disease Degree (Rhizoctonia solani; 500 ppm): 5
- Percent Disease Control (Rhizoctonia solani; 500 ppm): 95%

Compound: O[C@@]1(c2cccc3ccccc23)CCCC[C@H]1n1cncn1 (relative stereo) [Compound 1, cis-1-(1-naphthyl)-2-(1,2,4-triazol-1-yl)/cyclohexanol]
- Percent Disease Control, Curative Spraying (Puccinia coronata): 100%
- Percent Disease Control, Protective Spraying (Puccinia coronata): 100%
- Protective Index, Foliar Treatment (Sphaerotheca fuliginea [2]): 10
- Protective Index, Soil Treatment (Sphaerotheca fuliginea [2]): 5 (Disease sign is observed on the leaf in about 30%.)

Compound: O[C@@]1(c2ccc(F)cc2)CCCCC[C@H]1n1cncn1 (relative stereo) [Compound 30]
- Percent Disease Control, Curative Spraying (Sclerotinia sclerotiorum; 31.3 ppm): 94%
- Percent Disease Control, Protective Spraying (Sclerotinia sclerotiorum; 31.3 ppm): 89%
- Percent Disease Control, Curative Spraying (Sclerotinia sclerotiorum; 125 ppm): 96%
- Percent Disease Control, Protective Spraying (Sclerotinia sclerotiorum; 125 ppm): 100%
- Protective Effect by Vapor (Sphaerotheca fuliginea [1]; Table 6, 0.5 ppm): -
- Protective Effect by Vapor (Sphaerotheca fuliginea [1]; Table 6, 2.0 ppm): -
- Protective Effect by Vapor (Sphaerotheca fuliginea [1]; Table 6, 7.8 ppm): +
- Protective Effect by Vapor (Sphaerotheca fuliginea [1]; Table 6, 31.3 ppm): +
- Foliar Treatment, Curative Effect (Sphaerotheca fuliginea [2]; second Table 4, 0.5 ppm): 7 (Disease sign is observed on the leaf in about 20%.)
- Foliar Treatment, Protective Effect (Sphaerotheca fuliginea [2]; second Table 4, 0.5 ppm): 0
- Soil Treatment, Protective Effect (Sphaerotheca fuliginea [2]; second Table 4, 0.5 ppm): 0
- Foliar Treatment, Curative Effect (Sphaerotheca fuliginea [2]; second Table 4, 2.0 ppm): 10
- Foliar Treatment, Protective Effect (Sphaerotheca fuliginea [2]; second Table 4, 2.0 ppm): 9
- Soil Treatment, Protective Effect (Sphaerotheca fuliginea [2]; second Table 4, 2.0 ppm): 0
- Foliar Treatment, Curative Effect (Sphaerotheca fuliginea [2]; second Table 4, 7.8 ppm): 10
- Foliar Treatment, Protective Effect (Sphaerotheca fuliginea [2]; second Table 4, 7.8 ppm): 10
- Soil Treatment, Protective Effect (Sphaerotheca fuliginea [2]; second Table 4, 7.8 ppm): 10
- Foliar Treatment, Curative Effect (Sphaerotheca fuliginea [2]; second Table 4, 31.3 ppm): 10
- Foliar Treatment, Protective Effect (Sphaerotheca fuliginea [2]; second Table 4, 31.3 ppm): 10
- Soil Treatment, Protective Effect (Sphaerotheca fuliginea [2]; second Table 4, 31.3 ppm): 10
- Percent Disease Control, Curative Spraying (Botrytis cinerea; Table 2, 31.3 ppm): 86%
- Percent Disease Control, Protective Spraying (Botrytis cinerea; Table 2, 31.3 ppm): 89%
- Percent Disease Control, Curative Spraying (Botrytis cinerea; Table 2, 125 ppm): 94%
- Percent Disease Control, Protective Spraying (Botrytis cinerea; Table 2, 125 ppm): 100%
- Disease Degree (Rhizoctonia solani; 31.3 ppm): 18
- Percent Disease Control (Rhizoctonia solani; 31.3 ppm): 82%
